± gives the expanded uncertainty stated by the source.
Legend:
[1] = refractive index (Na D-line) (dimensionless); settings: 293.1 K; 101.33 kPa; Liquid; Standard Abbe refractometry
[2] = Liquid; for mass density: 101.33 kPa; for Normal boiling temperature: Fischer boiling-point apparatus

| SMILES | refractive index [1] | mass density ([2]; 298.1 K) [kg/m3] | Normal boiling temperature [2] [°C] | mass density ([2]; 293.1 K) [kg/m3] |
| --- | --- | --- | --- | --- |
| CC(=O)CC(C)C [4-methylpentan-2-one] | 1.3959 ± 0.0011 | 796.2 ± 1.1 | 116.30 ± 0.2 |  |
| CC(=O)O [acetic acid] | 1.3721 ± 0.0011 | 1044.3 ± 0.5 | 117.70 ± 0.2 |  |
| CC(=O)OCc1ccccc1 [benzyl ethanoate] | 1.5235 ± 0.0011 |  | 213.10 ± 0.2 | 1055.2 ± 0.9 |
| CCCC#N [butanenitrile] | 1.384 ± 0.0011 |  | 117.40 ± 0.2 | 793.7 ± 1.1 |
| CCC(=O)O [propanoic acid] | 1.3811 ± 0.0011 | 988 ± 0.5 | 140.90 ± 0.2 |  |

Reference: the NIST ThermoML archive (doi:10.1021/je050527x)
